# Test results taken from patent US10995359B2, “Method for determining drug-sensitive human cell lines by analysis method in which measurement of activity of two types of protein kinase is used” (NITTO BOSEKI CO., LTD., priority 2015, dated 2021).
# Tests used:
# Experiment in all cases: Drug sensitivity assay (cell growth test), sulforhodamine B
# Format in all cases: cell-based
# [1] = tested on: DU4475 (IM) cells; details: Homo sapiens, DU-4475, 72 hours, read-out: inhibition rate (%) by wortmannin, classification by grid analysis
# Method: (§1) Cultured cells were treated with a MEK inhibitor and a PI3K inhibitor in various concentrations, and cell lines sensitive to MEK and PI3K were classified by calculating a cell growth inhibition rate. The culture method and analysis method are as follows.
# (§2) Thirteen types of cells used in the present study, HCC38 (BL1), MDA-MB-231 (MSL), DU4475 (IM), HCC1187 (IM), HCC1143 (BL1), HCC1395 (LAR), HCC1937 (BL1), MDA-MB-453 (LAR), HCC70 (BL2), HS578T (MSL), MDA-MB-157 (MSL) and MDA-MB-468 (BL1), were obtained from American type culture collection (ATCC), and SUM185PE (LAR) was obtained from ASTERAND BIOSCIENCE. All the cells belong to triple negative breast cancer (TNBC), and it is known which of six types (BL1, BL2, M, MSL, IM and LAR) these belong to by an existing classification method.
# (§3) All the cells were cultured in a medium designated from a source of supply, and 2 mM L-glutamine and 10% fetal bovine serum (FBS) were supplemented.
# (§4) Each type of cells was seeded in a 96 well titer plate at 1×10^4 cells/well, and trametinib, an MEK inhibitor (Medchem Express; 0.08, 0.16, 0.31, 0.63, 1.25, 2.5, 5, 10 and 20 μM), and wortmannin, a PI3K inhibitor (Wako Pure Chemical Industries, Ltd.; 0.08, 0.16, 0.31, 0.63, 1.25, 2.5, 5, 10 and 20 μM) were dissolved in Dimethyl Sulfoxide [DMSO] (Wako Pure Chemical Industries, Ltd.) in various concentrations and treated. In addition, the effect on cell growth was examined at 72 hours after the inhibitor by sulforhodamine B assay (manufactured by SIGMA-ALDRICH), and 50 μL of sulforhodamine B solution was added to each well and cells were left at room temperature for an hour for staining. The staining degree of metabolically survival cells was examined by monitoring absorbance at a wavelength of 565 nm using a microtiter plate. The absorbance of cells which were not treated with trametinib and wortmannin (treated with DMSO) was used as a control and defined as 100% to calculate a cell growth inhibition rate.
# (§5) The cell lines were classified into 4 types, cell lines sensitive to wortmannin (hereinafter, PA), cell lines sensitive to trametinib (hereinafter, MA), cell lines resistant to wortmannin and trametinib (hereinafter, R), and others (hereinafter, S). In the classification, first the inhibition rate of each drug was calculated in a concentration of 1 μM, and the inhibition rate (%) by trametinib and the inhibition rate (%) by wortmannin were plotted on the X axis and Y axis respectively on a graph.
# (§6) The cell lines were classified into 4 types, cell lines sensitive to wortmannin (hereinafter, PA), cell lines sensitive to trametinib (hereinafter, MA), cell lines resistant to wortmannin and trametinib (hereinafter, R), and others (hereinafter, S). In the classification, first the inhibition rate of each drug was calculated in a concentration of 100 nM, and the inhibition rate (%) by trametinib and the inhibition rate (%) by wortmannin were plotted on the X axis and Y axis respectively on a graph.
# as §5, with “10” for “1”, “graph. Using a 50% growth inhibition rate as an index of the inhibitive effect of a drug, cells were classified into 4 types by grid analysis.” for “graph.”
# [2] = tested on: HCC1937 (BL1) cells; details: Homo sapiens, 72 hours, read-out: inhibition rate (%) by wortmannin, classification by grid analysis
# Method: as §1, §2, §3, §4, §5, §6
# as §5, with “10” for “1”, “graph. Using a 50% growth inhibition rate as an index of the inhibitive effect of a drug, cells were classified into 4 types by grid analysis.” for “graph.”
# [3] = tested on: HCC38 (BL1) cells; details: Homo sapiens, 72 hours, read-out: inhibition rate (%) by wortmannin, classification by grid analysis
# Method: as §1, §2, §3, §4, §5, §6
# as §5, with “10” for “1”, “graph. Using a 50% growth inhibition rate as an index of the inhibitive effect of a drug, cells were classified into 4 types by grid analysis.” for “graph.”
# [4] = tested on: HCC70 (BL2) cells; details: Homo sapiens, 72 hours, read-out: inhibition rate (%) by wortmannin, classification by grid analysis
# Method: as §1, §2, §3, §4, §5, §6
# as §5, with “10” for “1”, “graph. Using a 50% growth inhibition rate as an index of the inhibitive effect of a drug, cells were classified into 4 types by grid analysis.” for “graph.”
# [5] = tested on: HS578T (MSL) cells; details: Homo sapiens, Hs-578T, 72 hours, read-out: inhibition rate (%) by wortmannin, classification by grid analysis
# Method: as §1, §2, §3, §4, §5, §6
# as §5, with “10” for “1”, “graph. Using a 50% growth inhibition rate as an index of the inhibitive effect of a drug, cells were classified into 4 types by grid analysis.” for “graph.”
# [6] = tested on: MDA-MB-157 (MSL) cells; details: Homo sapiens, 72 hours, read-out: inhibition rate (%) by wortmannin, classification by grid analysis
# Method: as §1, §2, §3, §4, §5, §6
# as §5, with “10” for “1”, “graph. Using a 50% growth inhibition rate as an index of the inhibitive effect of a drug, cells were classified into 4 types by grid analysis.” for “graph.”
# [7] = tested on: MDA-MB-231 (MSL) cells; details: Homo sapiens, 72 hours, read-out: inhibition rate (%) by wortmannin, classification by grid analysis
# Method: as §1, §2, §3, §4, §5, §6
# as §5, with “10” for “1”, “graph. Using a 50% growth inhibition rate as an index of the inhibitive effect of a drug, cells were classified into 4 types by grid analysis.” for “graph.”
# [8] = tested on: MDA-MB-468 (BL1) cells; details: Homo sapiens, 72 hours, read-out: inhibition rate (%) by wortmannin, classification by grid analysis
# Method: as §1, §2, §3, §4, §5, §6
# as §5, with “10” for “1”, “graph. Using a 50% growth inhibition rate as an index of the inhibitive effect of a drug, cells were classified into 4 types by grid analysis.” for “graph.”
# [9] = tested on: SUM185PE (LAR) cells; details: Homo sapiens, 72 hours, read-out: inhibition rate (%) by wortmannin, classification by grid analysis
# Method: as §1, §2, §3, §4, §5, §6
# as §5, with “10” for “1”, “graph. Using a 50% growth inhibition rate as an index of the inhibitive effect of a drug, cells were classified into 4 types by grid analysis.” for “graph.”
# [10] = 100 nM, index 12.5% growth inhibition rate
# [11] = 1 μM, index 25% growth inhibition rate
# [12] = 10 μM, index 50% growth inhibition rate
smiles,measurement,setting,value
"COC[C@H]1OC(=O)c2coc3c2[C@@]1(C)C1=C(C3=O)[C@@H]2CCC(=O)[C@@]2(C)C[C@H]1OC(C)=O [wortmannin, Wortmannin]",inhibition at 0.1 µM,"[1]; DU4475, 100 nM, index 12.5% growth inhibition rate",< 12.5%
same,inhibition at 1 µM,"[1]; DU4475, 1 μM, index 25% growth inhibition rate",< 25%
same,inhibition at 10 µM,"[1]; DU4475, 10 μM, index 50% growth inhibition rate",< 50%
same,inhibition at 0.1 µM,"[2]; HCC1937, 100 nM, index 12.5% growth inhibition rate",< 12.5%
same,inhibition at 1 µM,"[2]; HCC1937, 1 μM, index 25% growth inhibition rate",< 25%
same,inhibition at 10 µM,"[2]; HCC1937, 10 μM, index 50% growth inhibition rate",< 50%
same,inhibition at 0.1 µM,"[3]; HCC38, 100 nM, index 12.5% growth inhibition rate",< 12.5%
same,inhibition at 1 µM,"[3]; HCC38, 1 μM, index 25% growth inhibition rate",< 25%
same,inhibition at 10 µM,"[3]; HCC38, 10 μM, index 50% growth inhibition rate",< 50%
same,inhibition at 0.1 µM,"[4]; HCC70, 100 nM, index 12.5% growth inhibition rate",> 12.5%
same,inhibition at 1 µM,"[4]; HCC70, 1 μM, index 25% growth inhibition rate",> 25%
same,inhibition at 10 µM,"[4]; HCC70, 10 μM, index 50% growth inhibition rate",> 50%
same,inhibition at 0.1 µM,[5]; [10],< 12.5%
same,inhibition at 1 µM,[5]; [11],< 25%
same,inhibition at 10 µM,[5]; [12],< 50%
same,inhibition at 0.1 µM,"[6]; MDA-MB-157, 100 nM, index 12.5% growth inhibition rate",< 12.5%
same,inhibition at 1 µM,"[6]; MDA-MB-157, 1 μM, index 25% growth inhibition rate",< 25%
same,inhibition at 10 µM,"[6]; MDA-MB-157, 10 μM, index 50% growth inhibition rate",< 50%
same,inhibition at 0.1 µM,"[7]; MDA-MB-231, 100 nM, index 12.5% growth inhibition rate",< 12.5%
same,inhibition at 1 µM,"[7]; MDA-MB-231, 1 μM, index 25% growth inhibition rate",< 25%
same,inhibition at 10 µM,"[7]; MDA-MB-231, 10 μM, index 50% growth inhibition rate",< 50%
same,inhibition at 0.1 µM,"[8]; MDA-MB-468, 100 nM, index 12.5% growth inhibition rate",> 12.5%
same,inhibition at 1 µM,"[8]; MDA-MB-468, 1 μM, index 25% growth inhibition rate",> 25%
same,inhibition at 10 µM,"[8]; MDA-MB-468, 10 μM, index 50% growth inhibition rate",> 50%
same,inhibition at 0.1 µM,[9]; [10],> 12.5%
same,inhibition at 1 µM,[9]; [11],> 25%
same,inhibition at 10 µM,[9]; [12],> 50%
